Reference: US8642613B2, “Treatment for leukemia and idiopathic aplastic anemia” (Sphingomonas Research Partners, L.P., priority 2008, dated 2014)

Test system: acute lymphocytic leukemia (ALL), Philadelphia chromosome positive, with bone marrow failure
Experiment: Rifampicin treatment of a single patient with relapsed acute lymphocytic leukemia and end stage bone marrow failure
Type: in vivo, human
Method: The single leukemia patient studied, and reported here, was a person who presented with acute lymphocytic leukemia (ALL), Philadelphia chromosome positive, who was converted to remission with a stem cell transplant from a matching sibling. Within one year, the leukemia reverted to an active form, and they were treated with all anti-leukemic agents known, and these included several experimental agents from MD Anderson Hospital in Houston.
They developed diabetes associated with steroids, and right maxillary sinus infection with a species of Mucorales. They underwent debridement of their sinus, with removal of bone and tissue up to the floor of the […] orbit. The sense of smell had been lost during the mucor infection. Their condition worsened in the Houston hospital. They developed bone marrow failure, and was transferred by air ambulance in a bed to their home in the Chicago area with instructions for terminal hospice care. They were bedridden, unable to sit up, and appeared moribund.
The laboratory findings at that time included:
The present inventor, who is a physician, is a cousin of the patient. After informed consent, which included a description of the experience of the inventor, the patient was started on rifampicin (rifampin) 600 mg daily not within 2½ hours of meals. This treatment was not part of any protocol, but was a private request to the inventor.

[1] = single ALL patient, rifampicin 600 mg daily
[2] = single ALL patient, rifampicin 600 mg daily, time after start of treatment

Rifampicin
white cell levels (mature leukocytes and lymphocytes) (approximately 5 weeks after treatment began, rifampicin 600 mg daily): continued at normal levels | platelet counts over time (FIG. 3) (patient presenting with acute lymphocytic leukemia treated with rifampicin): increase in platelet counts over time | white cell counts over time (FIG. 4) (same patient and time course as FIG. 3): increase in white cell counts | clinical condition (strength, sitting, standing, short walks) [1]: marked clinical improvement | platelet drop leading to temporary discontinuation (suspected platelet agglutination) [1]: transient drop in platelets | time until patient began to show bone marrow recovery [2]: ≤ 2 weeks | time until significant parameters of bone marrow remission had developed [2]: ≤ 6 weeks | platelets, level reached on treatment (single ALL patient, rifampicin 600 mg daily, 11K before treatment): 48 K
